Laboratory results published in US10168342B2, “Lipid probes and uses thereof” (THE SCRIPPS RESEARCH INSTITUTE, priority 2015, dated 2019).

Experiments:
Experiment in all cases: isoTOP-ABPP mapping of AEA-DA-modified peptides in Neuro2a cells
Assay type in all cases: cell-based
[1] = target: T1, AEA-DA-modified peptides in Neuro2a cells (Mus musculus, UniProt Q8BJ03); conditions: AEA-DA-modified peptide COX15 Q8BJ03 317-331, SEQ ID NO 25; probe 100 μM, 12 replicates
T1 construct: endogenous in cells; host or cells: Neuro2a
T1 sequence (Q8BJ03 whole entry): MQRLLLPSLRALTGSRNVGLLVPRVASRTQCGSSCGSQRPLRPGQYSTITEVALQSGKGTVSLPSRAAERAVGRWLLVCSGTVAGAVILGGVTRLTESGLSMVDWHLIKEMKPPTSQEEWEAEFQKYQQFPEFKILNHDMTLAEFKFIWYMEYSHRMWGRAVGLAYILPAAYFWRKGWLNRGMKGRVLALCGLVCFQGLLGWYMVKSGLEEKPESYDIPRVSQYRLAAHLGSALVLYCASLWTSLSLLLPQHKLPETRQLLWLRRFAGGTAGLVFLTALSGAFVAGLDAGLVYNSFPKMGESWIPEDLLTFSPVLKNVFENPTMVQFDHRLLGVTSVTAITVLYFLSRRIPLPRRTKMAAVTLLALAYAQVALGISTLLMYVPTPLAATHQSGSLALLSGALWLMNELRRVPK
Protocol: (§1) Experiments were performed as described above using the AEA-DA probe (100 μM) in 3.0 mL of DMEM (serum-free) and Neuro2A cells without (twelve replicates; ten biological; two technical). For the ligand competition study, cells were treated with the AEA-DA probe (50 μM) and DMSO or MJN228 (50 μM) treatment. Cells were harvested and processed as described above. Whole cell lysates (500 μL at 1.5 mg/mL) were processed for MS analysis using the previously described isoTOPABPP protocol (Speers and Cravatt, 2005). In brief, for global mapping of AEA-DA-modified peptides, proteomes were split into two fractions, which were subjected to click chemistry conditions with either light or heavy isotopically labeled TEV-tags. For the […] competition study, proteomes were subjected to click chemistry conditions with either light (DMSO) or heavy (MJN228-treated) TEV-tags. Light and heavy-tagged proteomes in each experiment were then combined, and, following enrichment of probe-labeled targets using streptavidin beads, proteins were digested on-bead with trypsin and remaining immobilized peptides released with a subsequent TEV protease digestion. The resulting probe-modified peptides were collected for MS analysis, which was performed as described above with differences in the salt bumps applied in the chromatographic gradients which were 0%, 30%, 60%, 90% and 100% NH4OAc (500 mM). The protein identification searches of the MS data were performed using the same software packages described above with the following changes applied to identify the peptides modified with AEA-DA and the cleaved TEV tag. All amino acids were considered as possible residues for modification. To facilitate the computational searches, sets of up to 3 amino acids were searched using ProLuCID and filtered with DTASelect as described above. The mass of the modification used to search for probe-modified peptides was +727.4745 m/z for the probe plus the light TEV-tag and +733.4831 m/z for the heavy counterpart. […] For global mapping experiments, AEA-DA-modified peptides were expected to show a ratio of “heavy” and “light” signals of ˜1.0 (0.5<ratio<2.0) and were required to have been detected in at least two of the twelve replicate experiments.
(§2) In some embodiments, the ligands are tested for their interaction to NUCB1 in cells. […] MJN228 inhibited lipid probe binding to NUCB1 at concentrations as low as 10 μM, with near-maximal inhibition observed at ˜25 μM (FIG. 16A). […] The site of arachidonoyl probe (and MJN228) binding to NUCB1 was mapped in cells, which was accomplished by treating Neuro2A cells with the AEA-DA probe (50 μM) in the presence of DMSO or MJN228 (50 μM), followed by UV irradiation, CuAAC conjugation of AEA-DA-labeled proteins to isotopically light (DMSO-treated cells) and heavy (MJN228-treated cells) azide-biotin tags featuring a TEV protease-cleavable linker, and LCMS/MS analysis using a previously described platform, termed isoTOP-ABPP, for mapping probe-modified peptides in proteomes (Speers and Cravatt, 2005). A AEA-DA labeled peptide was identified for NUCB1 (aa 53-68) in DMSO-treated cells and the signals for this peptide were substantially (>5-fold) reduced in MJN228-treated cells (FIG. 15C). This AEA-DA labeling site was confirmed using recombinant, purified hNUCB1 and tandem MS analysis which narrowed down the site of probe modification to His67 (FIGS. 16B and 16C).

[2] = target: T2, AEA-DA-modified peptides in Neuro2a cells (Mus musculus, UniProt P14733); conditions: AEA-DA-modified peptide LMNB1 P14733 159-183, SEQ ID NO 56; probe 100 μM, 12 replicates
T2 construct: endogenous in cells; host or cells: Neuro2a
T2 sequence (P14733 whole entry): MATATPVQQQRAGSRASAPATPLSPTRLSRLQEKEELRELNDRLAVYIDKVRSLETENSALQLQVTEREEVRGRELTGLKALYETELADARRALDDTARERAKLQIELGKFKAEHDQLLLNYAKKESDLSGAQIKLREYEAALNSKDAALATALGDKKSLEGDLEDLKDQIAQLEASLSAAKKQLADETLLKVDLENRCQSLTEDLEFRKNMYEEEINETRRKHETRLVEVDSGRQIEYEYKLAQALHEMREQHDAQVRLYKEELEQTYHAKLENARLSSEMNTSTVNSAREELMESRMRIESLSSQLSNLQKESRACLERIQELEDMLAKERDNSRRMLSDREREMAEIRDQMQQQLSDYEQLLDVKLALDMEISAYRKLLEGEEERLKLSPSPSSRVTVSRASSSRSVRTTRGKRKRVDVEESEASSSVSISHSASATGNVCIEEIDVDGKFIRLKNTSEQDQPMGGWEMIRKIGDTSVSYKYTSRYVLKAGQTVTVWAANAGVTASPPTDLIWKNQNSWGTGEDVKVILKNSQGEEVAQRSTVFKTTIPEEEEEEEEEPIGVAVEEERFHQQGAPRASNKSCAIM
Protocol: as §1, §2

[3] = target: T3, AEA-DA-modified peptides in Neuro2a cells (Mus musculus, UniProt Q8CFE6); conditions: AEA-DA-modified peptide SLC38A2 Q8CFE6 171-179, SEQ ID NO 105; probe 100 μM, 12 replicates
T3 construct: endogenous in cells; host or cells: Neuro2a
T3 sequence (Q8CFE6 whole entry): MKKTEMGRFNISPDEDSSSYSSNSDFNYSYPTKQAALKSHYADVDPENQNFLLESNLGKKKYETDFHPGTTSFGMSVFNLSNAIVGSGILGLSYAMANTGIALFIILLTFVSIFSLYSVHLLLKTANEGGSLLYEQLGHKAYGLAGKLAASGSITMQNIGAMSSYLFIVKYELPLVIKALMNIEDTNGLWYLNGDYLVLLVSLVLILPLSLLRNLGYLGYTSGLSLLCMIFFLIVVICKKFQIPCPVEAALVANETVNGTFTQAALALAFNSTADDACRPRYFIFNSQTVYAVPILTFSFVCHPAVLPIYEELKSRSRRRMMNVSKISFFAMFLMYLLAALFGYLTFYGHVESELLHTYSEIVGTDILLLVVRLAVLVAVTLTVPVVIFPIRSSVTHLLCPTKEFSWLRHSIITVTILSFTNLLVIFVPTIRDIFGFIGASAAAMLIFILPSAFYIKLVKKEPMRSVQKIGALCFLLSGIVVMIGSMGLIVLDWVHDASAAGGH
Protocol: as §1, §2

[4] = target: T4, AEA-DA-modified peptides in Neuro2a cells (Mus musculus, UniProt Q8R0X7); conditions: probe 100 μM, 12 replicates
T4 construct: endogenous in cells; host or cells: Neuro2a
T4 sequence (Q8R0X7 whole entry): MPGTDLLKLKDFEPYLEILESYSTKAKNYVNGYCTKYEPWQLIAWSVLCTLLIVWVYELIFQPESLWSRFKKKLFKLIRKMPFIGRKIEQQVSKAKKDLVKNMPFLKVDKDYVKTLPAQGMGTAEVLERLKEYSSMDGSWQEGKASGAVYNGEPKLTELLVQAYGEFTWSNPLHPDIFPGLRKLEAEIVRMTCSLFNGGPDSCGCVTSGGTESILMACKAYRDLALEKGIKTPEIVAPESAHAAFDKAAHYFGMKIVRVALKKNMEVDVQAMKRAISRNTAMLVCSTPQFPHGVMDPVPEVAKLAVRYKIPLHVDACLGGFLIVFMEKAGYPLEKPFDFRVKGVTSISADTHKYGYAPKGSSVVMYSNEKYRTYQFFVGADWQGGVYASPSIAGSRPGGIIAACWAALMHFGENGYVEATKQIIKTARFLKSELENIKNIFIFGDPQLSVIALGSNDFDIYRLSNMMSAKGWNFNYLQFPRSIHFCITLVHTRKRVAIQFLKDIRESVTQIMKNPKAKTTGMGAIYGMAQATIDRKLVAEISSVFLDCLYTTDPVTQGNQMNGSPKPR
Protocol: as §1, §2

[5] = target: T5, AEA-DA-modified peptides in Neuro2a cells (Mus musculus, UniProt Q8CIV2); conditions: AEA-DA-modified peptide ORF61 Q8CIV2 245-263, SEQ ID NO 75; probe 100 μM, 12 replicates
T5 construct: endogenous in cells; host or cells: Neuro2a
T5 sequence (Q8CIV2 whole entry): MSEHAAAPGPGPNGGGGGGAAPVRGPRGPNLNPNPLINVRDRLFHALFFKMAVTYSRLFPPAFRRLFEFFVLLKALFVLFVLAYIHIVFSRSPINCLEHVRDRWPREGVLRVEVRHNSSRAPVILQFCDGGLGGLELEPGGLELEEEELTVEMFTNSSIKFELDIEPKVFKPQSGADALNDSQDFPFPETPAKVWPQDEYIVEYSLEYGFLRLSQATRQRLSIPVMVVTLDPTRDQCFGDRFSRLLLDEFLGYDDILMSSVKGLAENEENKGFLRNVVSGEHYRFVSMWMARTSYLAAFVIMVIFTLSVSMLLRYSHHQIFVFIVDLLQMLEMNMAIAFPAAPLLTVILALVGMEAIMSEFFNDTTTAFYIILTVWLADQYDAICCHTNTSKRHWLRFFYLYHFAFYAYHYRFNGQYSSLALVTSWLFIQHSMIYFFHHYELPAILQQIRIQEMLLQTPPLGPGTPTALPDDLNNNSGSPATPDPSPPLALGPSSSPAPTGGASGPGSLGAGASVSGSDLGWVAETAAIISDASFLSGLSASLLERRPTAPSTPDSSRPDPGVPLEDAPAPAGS
Protocol: as §1, §2

[6] = target: T6, AEA-DA-modified peptides in Neuro2a cells (Mus musculus, UniProt Q9D8V0); conditions: AEA-DA-modified peptide HM13 Q9D8V0 62-74, SEQ ID NO 48; probe 100 μM, 12 replicates
T6 construct: endogenous in cells; host or cells: Neuro2a
T6 sequence (Q9D8V0 whole entry): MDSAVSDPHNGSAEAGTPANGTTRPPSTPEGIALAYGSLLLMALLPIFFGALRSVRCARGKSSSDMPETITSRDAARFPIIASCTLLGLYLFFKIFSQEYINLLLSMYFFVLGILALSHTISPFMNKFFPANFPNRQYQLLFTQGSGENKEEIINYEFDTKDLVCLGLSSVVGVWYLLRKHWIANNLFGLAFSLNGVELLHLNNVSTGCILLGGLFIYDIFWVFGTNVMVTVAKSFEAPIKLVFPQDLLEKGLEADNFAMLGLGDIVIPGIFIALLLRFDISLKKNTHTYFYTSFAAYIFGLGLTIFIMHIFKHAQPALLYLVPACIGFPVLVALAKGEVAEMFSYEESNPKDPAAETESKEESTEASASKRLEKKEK
Protocol: as §1, §2

[7] = target: T7, AEA-DA-modified peptides in Neuro2a cells (Mus musculus, UniProt P00375); conditions: AEA-DA-modified peptide DHFR P00375 20-34, SEQ ID NO 30; probe 100 μM, 12 replicates
T7 construct: endogenous in cells; host or cells: Neuro2a
T7 sequence (P00375 whole entry): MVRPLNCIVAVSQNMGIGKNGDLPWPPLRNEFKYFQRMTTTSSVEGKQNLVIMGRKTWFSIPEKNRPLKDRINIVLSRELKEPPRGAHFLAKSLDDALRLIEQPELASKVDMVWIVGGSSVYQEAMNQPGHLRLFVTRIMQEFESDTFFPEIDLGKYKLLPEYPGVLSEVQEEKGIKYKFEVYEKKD
Protocol: as §1, §2

[8] = target: T8, AEA-DA-modified peptides in Neuro2a cells (Mus musculus, UniProt P97311); conditions: AEA-DA-modified peptide MCM6 P97311 59-86, SEQ ID NO 59; probe 100 μM, 12 replicates
T8 construct: endogenous in cells; host or cells: Neuro2a
T8 sequence (P97311 whole entry): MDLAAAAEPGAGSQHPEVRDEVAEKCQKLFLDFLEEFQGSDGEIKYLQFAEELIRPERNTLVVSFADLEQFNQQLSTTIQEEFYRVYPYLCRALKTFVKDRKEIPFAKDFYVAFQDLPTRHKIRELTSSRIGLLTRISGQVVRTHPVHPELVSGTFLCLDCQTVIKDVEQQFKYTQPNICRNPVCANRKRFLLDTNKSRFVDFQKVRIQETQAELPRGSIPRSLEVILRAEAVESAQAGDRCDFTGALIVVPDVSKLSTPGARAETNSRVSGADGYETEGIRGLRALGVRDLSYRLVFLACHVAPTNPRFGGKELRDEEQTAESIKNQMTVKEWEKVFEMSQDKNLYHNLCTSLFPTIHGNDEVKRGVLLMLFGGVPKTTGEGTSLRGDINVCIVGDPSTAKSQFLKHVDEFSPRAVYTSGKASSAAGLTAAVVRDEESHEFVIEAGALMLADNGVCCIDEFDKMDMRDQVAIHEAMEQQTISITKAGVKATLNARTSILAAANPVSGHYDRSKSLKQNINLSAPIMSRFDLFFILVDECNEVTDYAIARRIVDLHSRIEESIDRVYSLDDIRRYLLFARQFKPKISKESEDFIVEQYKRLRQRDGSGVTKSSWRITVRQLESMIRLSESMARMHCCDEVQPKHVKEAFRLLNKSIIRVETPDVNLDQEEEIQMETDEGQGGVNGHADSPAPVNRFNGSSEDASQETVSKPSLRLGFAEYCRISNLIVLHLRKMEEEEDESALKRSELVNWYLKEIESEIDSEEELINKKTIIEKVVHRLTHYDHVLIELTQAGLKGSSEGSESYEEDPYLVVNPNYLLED
Protocol: as §1, §2

[9] = target: T9, AEA-DA-modified peptides in Neuro2a cells (Mus musculus, UniProt Q9DC61); conditions: AEA-DA-modified peptide PMPCA Q9DC61 428-451, SEQ ID NO 88; probe 100 μM, 12 replicates
T9 construct: endogenous in cells; host or cells: Neuro2a
T9 sequence (Q9DC61 34-524): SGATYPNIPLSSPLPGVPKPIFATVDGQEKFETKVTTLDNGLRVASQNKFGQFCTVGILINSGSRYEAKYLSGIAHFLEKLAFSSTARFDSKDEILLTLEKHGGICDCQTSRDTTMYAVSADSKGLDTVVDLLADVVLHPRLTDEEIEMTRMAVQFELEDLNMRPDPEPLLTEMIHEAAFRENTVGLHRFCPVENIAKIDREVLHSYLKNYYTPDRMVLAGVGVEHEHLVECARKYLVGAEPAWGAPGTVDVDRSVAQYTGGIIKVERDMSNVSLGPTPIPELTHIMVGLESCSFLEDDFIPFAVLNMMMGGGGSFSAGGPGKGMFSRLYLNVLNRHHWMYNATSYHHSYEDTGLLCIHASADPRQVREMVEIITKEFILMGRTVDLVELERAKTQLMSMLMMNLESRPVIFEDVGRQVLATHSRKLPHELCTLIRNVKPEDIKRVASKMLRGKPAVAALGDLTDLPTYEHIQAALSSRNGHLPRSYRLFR
Protocol: as §1, §2

[10] = target: T10, AEA-DA-modified peptides in Neuro2a cells (Mus musculus, UniProt Q9JKW0); conditions: AEA-DA-modified peptide ARL6IP1 Q9JKW0 8-36, SEQ ID NO 15; probe 100 μM, 12 replicates
T10 construct: endogenous in cells; host or cells: Neuro2a
T10 sequence (Q9JKW0 whole entry): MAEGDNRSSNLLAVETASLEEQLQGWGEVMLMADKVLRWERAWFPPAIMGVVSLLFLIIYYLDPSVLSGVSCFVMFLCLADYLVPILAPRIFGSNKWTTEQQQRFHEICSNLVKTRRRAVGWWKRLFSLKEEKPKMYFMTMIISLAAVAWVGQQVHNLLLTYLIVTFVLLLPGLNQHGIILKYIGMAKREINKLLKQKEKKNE
Protocol: as §1, §2

[11] = target: T11, AEA-DA-modified peptides in Neuro2a cells (Mus musculus, UniProt Q8BWM0); conditions: AEA-DA-modified peptide PTGES2 Q8BWM0 269-279, SEQ ID NO 92; probe 100 μM, 12 replicates
T11 construct: endogenous in cells; host or cells: Neuro2a
Protocol: as §1, §2

[12] = target: T12, AEA-DA-modified peptides in Neuro2a cells (Mus musculus, UniProt O09061); conditions: AEA-DA-modified peptide PSMB1 O09061 127-146, SEQ ID NO 90; probe 100 μM, 12 replicates
T12 construct: endogenous in cells; host or cells: Neuro2a
T12 sequence (O09061 28-240): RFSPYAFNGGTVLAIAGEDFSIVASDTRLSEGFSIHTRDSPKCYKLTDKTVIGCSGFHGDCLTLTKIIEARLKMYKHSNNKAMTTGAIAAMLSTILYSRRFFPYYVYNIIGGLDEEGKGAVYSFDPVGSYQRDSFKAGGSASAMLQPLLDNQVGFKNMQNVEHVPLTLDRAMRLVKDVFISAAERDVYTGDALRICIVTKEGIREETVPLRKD
Protocol: as §1, §2

## C#CCCCC1(CC/C=C\C/C=C\C/C=C\CCCC(=O)NCCO)N=N1 [AEA-DA, (5Z,8Z,11Z)-N-(2-hydroxyethyl)-14-(3-(pent-4-yn-1-yl)-3H-diazirin-3-yl)tetradeca-5,8,11-trienamide]
[1]
  Times observed: 2
[2]
  Times observed: 2
[3]
  Times observed: 4
[4]; AEA-DA-modified peptide SGPL1 Q8R0X7 9-26, SEQ ID NO 100
  Times observed: 4
[4]; AEA-DA-modified peptide SGPL1 Q8R0X7 519-536, SEQ ID NO 99
  Times observed: 12
[5]
  Times observed: 4
[6]
  Times observed: 12
[7]
  Times observed: 4
[8]
  Times observed: 3
[9]
  Times observed: 7
[10]
  Times observed: 2
[11]
  Times observed: 3
[12]
  Times observed: 8
